# According to patent publication US20210070718A1, “NOVEL PHENYLSULFONYL OXAZOLE DERIVATIVE AND USE THEREOF” (priority 2018, published 2021):
# Legend:
# Format in all cases: in vivo
# APP/PS1 mouse [1] = experiment: Amyloid-β and tau deposition by thioflavin S / immunofluorescence staining in brain cortex and hippocampus; conditions: 50 mg/kg intraperitoneally 3 times a week for 2 months, compared to APP/PS1 mouse (PBS)
# Source text: (§1) A mouse experiment was approved by the Kyungpook National University Institutional Animal Care and Use Committee (IACUC). As an animal model of neurodegenerative disease (particularly, Alzheimer's disease), a transgenic mouse line overexpressing APPswe (hAPP695swe) and PS1 (presenilin-1M146V) based on a C57BL/6 mouse (Charles River, UK) was used. [hereinafter, APP/PS1 mouse (denoted by AD), GlaxoSmithKline Co., Ltd.]
# (§2) To confirm a therapeutic effect of the autophagy enhancing compound obtained in <Example 1>, an experimental substance was administered to the animal model according to the experimental outline (schedule) illustrated in FIG. 1. Specifically, PBS or the autophagy enhancing compound was intraperitoneally injected into a 6.5-month-old mouse 3 times a week at a dose of 50 mg/kg. After two months of the injection of the autophagy enhancing compound, behavioral analysis was performed, and the brain tissue of the mouse was used as a sample after the behavioral analysis (i.e., at 9.5 […] of mouse) (see FIG. 1).
# (§3) After immobilization of the mouse's cerebrum and hippocampus, 0.5% thioflavin S (Sigma-Aldrich), anti-20G10 against Aβ42 (mouse, 1:1000) and anti-G30 against A1340 (rabbit, 1:1000), anti-GFAP (rabbit, 1:500, DAKO) and anti-Iba-1 (rabbit, 1:500, WAKO) were incubated together. The sites were analyzed using a confocal laser scanning microscope or an Olympus BX51 microscope equipped with Fluoview SV1000 imaging software (Olympus FV1000, Japan). A percentage of an area of a stained area to an area of total tissues was quantified and analyzed by using Metamorph software (Molecular Devices).
# In order to determine whether the aforementioned autophagy enhancing compound had effects for prevention and treatment on neurodegenerative disease, the effect of the compound on an Alzheimer's model was representatively evaluated.
# First, an amyloid-β (Aβ) profile of an Alzheimer's lesion and the deposition degree of tau protein were confirmed. First, the cerebral cortex and hippocampus regions of the mouse were stained with thioflavin S (ThioS) according to a known method to confirm the deposition degree of fibrillar amyloid-β. In addition, immunofluorescence staining of Aβ40, Aβ42, and AT8 was performed to confirm the deposition degree of amyloid-β and tau protein.
# APP/PS1 mouse [2] = experiment: Morris water maze (MWM) test; conditions: 50 mg/kg intraperitoneally 3 times a week for 2 months, FIGS. 5A to 5C
# Source text: as §1, §2
# (§4) In order to confirm potential effects on learning and memory, Morris water maze (MWM) and fear conditioning tests were performed. In the MWM, the mouse learned a task 4 times a day for 10 days, a platform was removed on day 11, and a probe trial was performed. […]
# APP/PS1 mouse [3] = experiment: Fear conditioning test; conditions: 50 mg/kg intraperitoneally 3 times a week for 2 months, FIG. 5D
# Source text: as §1, §2, §4
# APP/PS1 mouse [4] = experiment: Astrocyte (GFAP) and microglia (Iba-1) immunofluorescence in brain; conditions: 50 mg/kg intraperitoneally 3 times a week for 2 months, compared with APP/PS1 mouse
# Source text: as §1
# To confirm a therapeutic effect of the autophagy enhancing compound obtained in <Example 1>, an experimental substance was administered to the animal model according to the experimental outline (schedule) illustrated in FIG. 1. Specifically, PBS or the autophagy enhancing compound was intraperitoneally injected into a 6.5-month-old mouse 3 times a week at a dose of 50 mg/kg. […]
# as §3, with “Devices). […]” for “Devices).”
# APP/PS1 mouse [5] = experiment: Real-time quantitative PCR of inflammatory cytokines in brain tissue; conditions: 50 mg/kg intraperitoneally 3 times a week for 2 months, brain mRNA, FIG. 6C
# Source text: as §1, §2
# A real-time quantitative PCR method was used to measure the expression levels of inflammatory response-related cytokines (TNF-α, IL-1β, and IL-6). Total RNA was extracted from the brain tissue using an RNeasy Plus mini kit (Qiagen, Korea, Ltd), and cDNA was synthesized from a total of 5 μg of RNA using a kit from Clontech (Mountain View, Calif.). In addition, by using a Corbett research RG-6000 real-time PCR instrument, real-time quantitative PCR was performed by setting 95° C., 10 minutes; 95° C., 10 seconds; and 58° C., 15 seconds as one cycle and repeating 40 cycles.
# APP/PS1 mouse [6] = experiment: Western blotting of autophagy-related proteins in brain tissue
# Source text: as §1, §2
# Expression of the following genes was analyzed using Western blotting. First, antibodies against LC3, beclin-1, and p62 [all, purchased from cell signaling Technologies], cathepsin D (R&D systems) and β-actin (Santa Cruz) were used, and density quantification was performed by using ImageJ software (US National Institutes of Health).
# In order to confirm how the aforementioned autophagy enhancing compound (in particular, 5-methoxy-4-(phenylsulfonyl)-2-(4-(trifluoromethyl)phenyl)oxazole) actually act in an autophagy-related pathway in vivo, conversion of LC3-I to LC3-II, and expression levels of beclin-1, cathepsin D and p62 were confirmed through a Western blotting experiment in brain tissue samples of 9.5-month-old WT, APP/PS1 (untreated group), and an APP/PS1 mouse injected with the autophagy enhancing compound.
# [7] = 9.5-month-old APP/PS1 mouse, 50 mg/kg intraperitoneally 3 times a week for 2 months, versus increased level in APP/PS1 mouse
structure (smiles),measurement,setting,value
"COc1oc(-c2ccc(C(F)(F)F)cc2)nc1S(=O)(=O)c1ccccc1 [autophagy enhancing compound, 5-methoxy-4-(phenylsulfonyl)-2-(4-(trifluoromethyl)phenyl)oxazole]",deposition of fibrillar Aβ (thioflavin S),"APP/PS1 mouse [1]; cerebral cortex and hippocampus, FIG. 2",significantly low
same,deposition of Aβ40,"APP/PS1 mouse [1]; cortex and hippocampus, FIG. 3A",significantly low
same,deposition of Aβ42,"APP/PS1 mouse [1]; cortex and hippocampus, FIG. 3B",significantly low
same,deposition of tau protein (AT8),"APP/PS1 mouse [1]; cortex and hippocampus, FIG. 4",significantly low
same,"impairment in spatial memory, cognition and memory formation (Morris water maze)",APP/PS1 mouse [2],significantly improved
same,memory in fear conditioning test (contextual and tone tasks),APP/PS1 mouse [3],remarkable memory improvement effect
same,activity of astrocytes (GFAP),APP/PS1 mouse [4]; FIG. 6A,significantly reduced
same,activity of microglia (Iba-1),APP/PS1 mouse [4]; FIG. 6B,significantly reduced
same,gene expression of inflammatory cytokine IL-1β,APP/PS1 mouse [5],restored to a normal level
same,gene expression of inflammatory cytokine IL-6,APP/PS1 mouse [5],restored to a normal level
same,gene expression of inflammatory cytokine TNF-α,APP/PS1 mouse [5],restored to a normal level
same,level of LC3-II,"APP/PS1 mouse [6]; 9.5-month-old APP/PS1 mouse, 50 mg/kg intraperitoneally 3 times a week for 2 months, FIG. 7",decreased to a level similar to WT
same,expression level of cathepsin D,APP/PS1 mouse [6]; [7],decreased
same,expression level of p62,APP/PS1 mouse [6]; [7],decreased
same,expression of beclin-1,"APP/PS1 mouse [6]; 9.5-month-old WT, APP/PS1 and injected APP/PS1 mouse, FIG. 7",no large difference in the three groups
